Assays:
[1] = tested on: rats; assay: Evaluation of wake promoting activity in rats (EEG/EMG sleep/wake scoring); type: in vivo, rat (adult male Wistar); conditions: i.p. route, 100 mg/kg dose; for Mean AUC0-3 h values, Test compound Mean: n = 8 rats per test compound, time awake in first 3 hrs following dosing; for wakefulness as compared to vehicle-treated control groups: rats, p<0.05 vs vehicle
Protocol: Methodology: Evaluation of Wake Promoting Activity in Rats
The methodology utilized for evaluating wake promoting activity of test compounds is based on that described by Edgar and Seidel, Journal of Pharmacology and Experimental Therapeutics, 283:757-769, 1997, and incorporated herein in its entirety by reference.
Animal Surgery. Adult, male Wistar rats (275-320 g from Charles River Laboratories, Wilmington, Mass.) were anesthetized (Nembutal, 45 mg/kg, ip.) and surgically prepared with implants for recording of chronic EEG (encephalographic) and EMG (electromyographic) recording. The EEG implants were made from commercially available components (Plastics One, Roanoke, Va.). EEG signals were recorded from stainless steel screw electrodes: 2 frontal (+3.0 mm AP from bregma, ±2.0 mm ML), and 2 occipital (−4.0 mm AP from bregma, ±2.0 mm ML). Two Teflon-coated stainless steel wires were positioned under the nuchal trapezoid muscles for EMG recording. All electrode leads were inserted into a connector pedestal and the pedestal affixed to the skull by application dental acrylic. Antibiotic was administered post surgically and antibiotic cream was applied to the wound edges to prevent infection. At least one week elapsed between surgery and recording.
Recording environment. Postsurgically, rats were housed in pairs in an isolated room. Food and water were available ad libitum, ambient temperature was 21° C., and humidity was 55%. At least 24 hrs prior to recording, they were placed in Nalgene containers (31×31×31 cm) with a wire-grid top, and entry to the room was prohibited during the day of recording except for dosing. The containers were placed on a rack with two shelves, 4 containers per shelf. Fluorescent overhead room lights were set to a 24 hr. light/dark cycle (on at 7 AM, off at 7 PM). Light levels inside the containers were 38 and 25 lux for the top and bottom shelves respectively. Background white-noise (68 db inside the containers) was present in the room to mask ambient sounds.
Data acquisition. EEG and EMG signals were led via cables to a commutator (Plastics One) and then to pre-amplifiers (model 1700, A-M Systems, Carlsborg, Wash.). EEG and EMG signals were amplified (10K and 1K respectively) and bandpass filtered between 0.3 and 500 Hz for EEG and between 10 and 500 Hz for EMG. […] On the day of dosing, data was recorded for 6 to 10 hours beginning at 11 AM.
Drug administration and study design. Compounds were evaluated on groups of from 4 to 8 rats carried out over one or two separate test sessions. […]
Sleep/wake scoring. Sleep and wake activity were determined manually using ICELUS software. […]

NC(=O)C[S+]([O-])Cc1ccccc1COc1ccccc1 (centres unmarked)
melting point: 153 to 154 °C

CC(=O)N1CCN(C(=O)C[S+]([O-])Cc2ccc(Oc3ccc(Cl)c(Cl)c3)cc2)CC1 (centres unmarked) [Example 22, 1-(4-Acetyl-piperazin-1-yl)-2-[4-(3,4-dichloro-phenoxy)-phenylmethanesulfinyl]-ethanone]
Mean AUC0-3 h values, Test compound Mean [1]: 162.7 % of waiking time × hr
wakefulness as compared to vehicle-treated control groups [1]: significantly greated wakefulness

NC(=O)C[S+]([O-])Cc1ccccc1NC(=O)c1ccc(Cl)cc1 (centres unmarked) [Example 113, N-(2-Carbamoylmethanesulfinylmethyl-phenyl)-4-chloro-benzamide]
Mean AUC0-3 h values, Test compound Mean [1]: 99.0 % of waiking time × hr
wakefulness as compared to vehicle-treated control groups [1]: significantly greated wakefulness

From patent US8071604B2, “Thio-substituted arylmethanesulfinyl derivatives” (Cephalon France, priority 2007, dated 2011)
